In patent US20110274656A1, “PHARMACEUTICAL COMPOSITION FOR PREVENTING OR TREATING HEPATITIS C, COMPRISING THE ROOTS EXTRACT OF PLATYCODON GRANDIFLORUM OR PLATYCODON GRANDIFLORUM SAPONIN COMPONENTS” (B&C Biopharm Co., Ltd., priority 2009, published 2011):

Tested on: HCV subgenomic RNA replicon in Huh-7 human hepatoma cell line
Assay: HCV RNA replication inhibitory activity in HCV replicon (subgenomic RNA replicon) cell line
Format: cell-based, HCV-1b Hepatitis C virus
Settings: Huh-7 cells harboring HCV-1b subgenomic replicon, 72 hours, RT-PCR
Description: To screen a compound that is capable of inhibiting HCV replication, each compound was added to Huh-7 human hepatoma cell line harboring HCV RNA replicon, followed by culture. Then, expression level of HCV RNA was quantified and its inhibitory activity was measured. HCV replicon used in this invention was derived from HCV-1b Hepatitis C virus gene that was bicistronic replicon composed of HCV IRES, neomycin resistant gene, EMCV (encephalomyocarditis virus) IRES. HCV non-structural proteins were composed of the sequences comprising NS3-NS5B and HCV 3′end. An expression vector harboring HCV replicon proceeded to in vitro transcription, and the obtained HCV replicon was transfected into the Huh-7 cells by electroporation. To select only those cells having HCV replicon, Huh-7 cells were cultured with medium containing the antibiotic G418 (500 μg/ml). The selected cells were cultured with DMEM (Dulbecco's modified Eagles media) containing 10% FBS, non-essential amino acids and 500 μg/ml of G418.
Huh-7 cells harboring HCV subgenomic RNA replicon were cultured overnight in 6 well plate (3×10^5 cells/well), at 37° C. and 5% CO2 with DMEM containing 10% FBS, non-essential amino acids and 500 μg/ml of G418. Medium of each well was replaced with DMEM containing 2% FBS, non-essential amino acids and 500 μg/ml of G418. Test compound was dissolved in DMSO, which was added to each well at different concentrations, followed by culture in a 5% CO2 incubator at 37° C. for 72 hours. Equal amount of DMSO (negative control) and Interferon-α (positive control) were added as controls. Upon completion of the culture, medium of each well was eliminated, followed by washing with 1 ml of PBS. 250 μl/well of trypsin/EDTA was added thereto and cells were separated from the plate and washed with PBS again to eliminate medium. Total RNA was isolated from the cells by using SV total RNA isolation system (Promega corporation), followed by quantification using GeneQuant pro (Amersham bioscience). EC50 against HCV replicon of each compound was investigated by RT-PCR and the result was compared with those of controls. RT-PCR was performed with the primer targeting HCV 1b NS5B region and by AccessQuick™ RT-PCR system (Promega corporation). To obtain more accurate EC50 values, quantitative real-time PCR was performed along with RT-PCR. cDNA was obtained from the isolated RNA by using Reverse transcription system (Promega corporation), followed by quantitative real-time PCR using iQ SYBR Green Supermix (Bio-rad). At the same time, one-step real time RT-PCR was performed using Taqman probe to investigate the inhibitory activity of each compound. At this time, the primer targeting HCV 5′-UTR was used and GAPDH (Glyceraldehyde-3-phosphate dehydrogenase) gene was used as a reference gene for correction. Real time RT-PCR was performed by using iCycler iQ5 system (Bio-rad). The EC50 value was calculated by iCycler iQ5 optical system software (Bio-rad) program to determine the inhibitory activity. HCV replicon inhibitory activity of saponin components of Platycodon grandiflorum, the roots extract of Platycodon grandiflorum and the composition containing the same of the present invention and sapogenin and prosapogenin is shown in Table 7 and Table 8.

Molecule	Inhibitory Activity EC50 (HCV RNA replication inhibitory activity of saponin components)
COC(=O)C12CCC(C)(C)CC1C1=CCC3C4(C)CC(O)C(OC5OC(CO)C(O)C(OC6OC(CO)C(O)C(O)C6O)C5O)C(CO)(CO)C4CCC3(C)C1(C)CC2O (stereo not shown) [Compound 19, platycodigenin 3-O-laminaribioside 28-methyl ester]	>10 µg/mL
2″-O-acetyl-deapiopolygalacin D2 [Compound 11]	>10 µg/mL
C[C@@H]1O[C@@H](O[C@H]2[C@H](OC(=O)[C@]34CCC(C)(C)C[C@H]3C3=CC[C@@H]5[C@@]6(C)C[C@H](O)[C@H](O[C@@H]7O[C@H](CO)[C@@H](O)[C@H](O)[C@H]7O)[C@@](C)(CO)[C@@H]6CC[C@@]5(C)[C@]3(C)C[C@H]4O)OC[C@H](O)[C@@H]2O)[C@H](O)[C@H](O)[C@H]1O[C@@H]1OC[C@@H](O)[C@H](O[C@@H]2OC[C@](O)(CO)[C@H]2O)[C@H]1O [Compound 5, polygalacin D]	0.8 µg/mL
COC(=O)C12CCC(C)(C)CC1C1=CCC3C4(C)CC(O)C(OC5OC(CO)C(O)C(O)C5O)C(CO)(CO)C4CCC3(C)C1(C)CC2O (stereo not shown) [Compound 18, platycodigenin 3-O-glucopyranoside 28-methyl ester]	>10 µg/mL
C[C@@H]1O[C@@H](O[C@H]2[C@H](OC(=O)[C@]34CCC(C)(C)C[C@H]3C3=CC[C@@H]5[C@@]6(C)C[C@H](O)[C@H](O[C@@H]7O[C@H](CO)[C@@H](O)[C@H](O[C@@H]8O[C@H](CO)[C@@H](O)[C@H](O)[C@H]8O)[C@H]7O)C(CO)(CO)[C@@H]6CC[C@@]5(C)[C@]3(C)C[C@H]4O)OC[C@H](O)[C@@H]2O)[C@H](O)[C@H](O)[C@H]1O[C@@H]1OC[C@@H](O)[C@H](O)[C@H]1O [Compound 7, deapioplatycodin D2]	0.2 µg/mL
platycogenic acid A lactone [Compound 16]	0.4 µg/mL
platycogenic acid A lactone 3-O-glucopyranoside [Compound 17]	2 µg/mL
C[C@@H]1O[C@@H](O[C@H]2[C@H](OC(=O)[C@]34CCC(C)(C)C[C@H]3C3=CC[C@@H]5[C@@]6(C)C[C@H](O)[C@H](O[C@@H]7O[C@H](CO)[C@@H](O)[C@H](O)[C@H]7O)C(CO)(CO)[C@@H]6CC[C@@]5(C)[C@]3(C)C[C@H]4O)OC[C@H](O)[C@@H]2O)[C@H](O)[C@H](O)[C@H]1O[C@@H]1OC[C@@H](O)[C@H](O)[C@H]1O [Compound 9, deapioplatycodin D]	0.2 µg/mL
CC1(C)CC[C@]2(C(=O)O)[C@H](O)C[C@]3(C)C(=CC[C@@H]4[C@@]5(C)C[C@H](O)[C@H](O)C(CO)(CO)[C@@H]5CC[C@]43C)[C@@H]2C1 [Compound 14, platycodigenin]	>10 µg/mL
C[C@@H]1O[C@@H](O[C@H]2[C@H](OC(=O)[C@]34CCC(C)(C)C[C@H]3C3=CC[C@@H]5[C@@]6(C)C[C@H](O)[C@H](O[C@@H]7O[C@H](CO)[C@@H](O)[C@H](O)[C@H]7O)C(CO)(CO)[C@@H]6CC[C@@]5(C)[C@]3(C)C[C@H]4O)OC[C@H](O)[C@@H]2O)[C@H](O)[C@H](O)[C@H]1O[C@@H]1OC[C@@H](O)[C@H](O[C@@H]2OC[C@](O)(CO)[C@H]2O)[C@H]1O [Compound 10, platycodin D]	0.1 µg/mL
C[C@@H]1O[C@@H](O[C@H]2[C@H](OC(=O)[C@]34CCC(C)(C)C[C@H]3C3=CC[C@@H]5[C@@]6(C)C[C@H](O)[C@H](O[C@@H]7O[C@H](CO[C@@H]8O[C@H](CO[C@@H]9O[C@H](CO)[C@@H](O)[C@H](O)[C@H]9O)[C@@H](O)[C@H](O)[C@H]8O)[C@@H](O)[C@H](O)[C@H]7O)C(CO)(CO)[C@@H]6CC[C@@]5(C)[C@]3(C)C[C@H]4O)OC[C@H](O)[C@@H]2O)[C@H](O)[C@H](O)[C@H]1O[C@@H]1OC[C@@H](O)[C@H](O)[C@H]1O [Compound 1, deapioplatycoside E]	>10 µg/mL
C[C@@H]1O[C@@H](O[C@H]2[C@H](OC(=O)[C@]34CCC(C)(C)C[C@H]3C3=CC[C@@H]5[C@@]6(C)C[C@H](O)[C@H](O[C@@H]7O[C@H](CO)[C@@H](O)[C@H](O[C@@H]8O[C@H](CO)[C@@H](O)[C@H](O)[C@H]8O)[C@H]7O)[C@@](C)(CO)[C@@H]6CC[C@@]5(C)[C@]3(C)C[C@H]4O)OC[C@H](O)[C@@H]2O)[C@H](O)[C@H](O)[C@H]1O[C@@H]1OC[C@@H](O)[C@H](O[C@@H]2OC[C@](O)(CO)[C@H]2O)[C@H]1O [Compound 4, polygalacin D2]	>10 µg/mL
C[C@@H]1O[C@@H](O[C@H]2[C@H](OC(=O)[C@]34CCC(C)(C)C[C@H]3C3=CC[C@@H]5[C@@]6(C)C[C@H](O)[C@H](O[C@@H]7O[C@H](CO)[C@@H](O)[C@H](O[C@@H]8O[C@H](CO)[C@@H](O)[C@H](O)[C@H]8O)[C@H]7O)C(CO)(CO)[C@@H]6CC[C@@]5(C)[C@]3(C)C[C@H]4O)OC[C@H](O)[C@@H]2O)[C@H](O)[C@H](O)[C@H]1O[C@@H]1OC[C@@H](O)[C@H](O[C@@H]2OC[C@](O)(CO)[C@H]2O)[C@H]1O [Compound 8, platycodin D2]	0.1 µg/mL
platyconic acid A methyl ester [Compound 13]	5 µg/mL
C[C@@H]1O[C@@H](O[C@H]2[C@H](OC(=O)[C@]34CCC(C)(C)C[C@H]3C3=CC[C@@H]5[C@@]6(C)C[C@H](O)[C@H](O[C@@H]7O[C@H](CO[C@@H]8O[C@H](CO[C@@H]9O[C@H](CO)[C@@H](O)[C@H](O)[C@H]9O)[C@@H](O)[C@H](O)[C@H]8O)[C@@H](O)[C@H](O)[C@H]7O)C(CO)(CO)[C@@H]6CC[C@@]5(C)[C@]3(C)C[C@H]4O)OC[C@H](O)[C@@H]2O)[C@H](O)[C@H](O)[C@H]1O[C@@H]1OC[C@@H](O)[C@H](O[C@@H]2OC[C@](O)(CO)[C@H]2O)[C@H]1O [Compound 2, platycoside E]	0.7 µg/mL
2″-O-acetyl-polygalacin D2 [Compound 12]	1 µg/mL
C[C@@H]1O[C@@H](O[C@H]2[C@H](OC(=O)[C@]34CCC(C)(C)C[C@H]3C3=CC[C@@H]5[C@@]6(C)C[C@H](O)[C@H](O[C@@H]7O[C@H](CO)[C@@H](O)[C@H](O)[C@H]7O)[C@](CO)(C(=O)O)[C@@H]6CC[C@@]5(C)[C@]3(C)C[C@H]4O)OC[C@H](O)[C@@H]2O)[C@H](O)[C@H](O)[C@H]1O[C@@H]1OC[C@@H](O)[C@H](O[C@@H]2OC[C@](O)(CO)[C@H]2O)[C@H]1O [Compound 6, platyconic acid A]	0.2 µg/mL
CC1(C)CCC2(C(=O)O)C(O)CC3(C)C(=CCC4C5(C)CC(O)C(O)C(C)(CO)C5CCC43C)C2C1 (stereo not shown) [Compound 15, polygalacic acid]	2 µg/mL
CC1OC(OC2C(OC(=O)C34CCC(C)(C)CC3C3=CCC5C6(C)CC(O)C(OC7OC(COC8OC(CO)C(O)C(O)C8O)C(O)C(O)C7O)C(CO)(CO)C6CCC5(C)C3(C)CC4O)OCC(O)C2O)C(O)C(O)C1OC1OCC(O)C(OC2OCC(O)(CO)C2O)C1O (stereo not shown) [Compound 3, platycodin D3]	0.2 µg/mL
